Laboratory results from US10160755B2 (Plexxikon Inc., priority 2015, dated 2018).

Tests used:
FLT3-ITD = target: T1, FLT3-ITD (Homo sapiens, UniProt P36888); test: FLT3-ITD biochemical kinase assay (AlphaScreen)
T1 construct: FLT3-ITD; Invitrogen #PV6190
T1 sequence (P36888 1-993): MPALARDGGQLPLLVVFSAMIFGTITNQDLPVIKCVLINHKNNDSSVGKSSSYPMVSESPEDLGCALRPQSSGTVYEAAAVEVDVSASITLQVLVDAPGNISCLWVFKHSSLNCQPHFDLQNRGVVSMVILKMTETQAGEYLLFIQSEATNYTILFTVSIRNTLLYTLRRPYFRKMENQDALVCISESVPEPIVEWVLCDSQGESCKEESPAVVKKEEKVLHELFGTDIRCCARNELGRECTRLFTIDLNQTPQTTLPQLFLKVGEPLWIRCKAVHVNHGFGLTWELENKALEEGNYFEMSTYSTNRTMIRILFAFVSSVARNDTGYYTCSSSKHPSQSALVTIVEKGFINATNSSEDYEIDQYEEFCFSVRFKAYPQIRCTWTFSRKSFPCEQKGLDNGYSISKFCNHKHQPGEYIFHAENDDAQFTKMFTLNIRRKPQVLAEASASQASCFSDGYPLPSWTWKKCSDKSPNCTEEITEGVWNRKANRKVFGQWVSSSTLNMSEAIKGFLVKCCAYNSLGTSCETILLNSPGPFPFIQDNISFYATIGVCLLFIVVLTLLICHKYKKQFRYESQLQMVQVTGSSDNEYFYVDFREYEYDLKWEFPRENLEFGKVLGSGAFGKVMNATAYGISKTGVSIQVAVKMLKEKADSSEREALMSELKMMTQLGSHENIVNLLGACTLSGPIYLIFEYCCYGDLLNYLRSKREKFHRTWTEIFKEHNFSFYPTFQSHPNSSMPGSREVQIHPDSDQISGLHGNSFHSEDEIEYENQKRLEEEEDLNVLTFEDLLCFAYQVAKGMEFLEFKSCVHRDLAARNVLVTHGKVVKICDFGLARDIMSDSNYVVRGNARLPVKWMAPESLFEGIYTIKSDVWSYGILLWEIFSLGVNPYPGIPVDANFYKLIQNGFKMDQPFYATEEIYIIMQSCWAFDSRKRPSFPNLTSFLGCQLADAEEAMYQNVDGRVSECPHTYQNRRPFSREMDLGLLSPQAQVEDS
In short: (§1)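 Recombinant enzyme phosphorylated biotin-poly(Glu4-Tyr) peptide (30 nM final); ATP final 10 μM for FLT3-D835Y, 100 μM for FLT3-ITD. AlphaScreen read-out: streptavidin donor and anti-phosphotyrosine (PY20) acceptor beads, 20 and 60 min at room temperature; inhibition seen as drop in 580 nm proximity signal; IC50 determined.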

FLT3-D835Y = target: T2, FLT3-D835Y (Homo sapiens, UniProt P36888, D835Y); test: FLT3-D835Y biochemical kinase assay (AlphaScreen)
T2 construct: purchased Invitrogen PV3967
T2 sequence (P36888 27-993 D835Y): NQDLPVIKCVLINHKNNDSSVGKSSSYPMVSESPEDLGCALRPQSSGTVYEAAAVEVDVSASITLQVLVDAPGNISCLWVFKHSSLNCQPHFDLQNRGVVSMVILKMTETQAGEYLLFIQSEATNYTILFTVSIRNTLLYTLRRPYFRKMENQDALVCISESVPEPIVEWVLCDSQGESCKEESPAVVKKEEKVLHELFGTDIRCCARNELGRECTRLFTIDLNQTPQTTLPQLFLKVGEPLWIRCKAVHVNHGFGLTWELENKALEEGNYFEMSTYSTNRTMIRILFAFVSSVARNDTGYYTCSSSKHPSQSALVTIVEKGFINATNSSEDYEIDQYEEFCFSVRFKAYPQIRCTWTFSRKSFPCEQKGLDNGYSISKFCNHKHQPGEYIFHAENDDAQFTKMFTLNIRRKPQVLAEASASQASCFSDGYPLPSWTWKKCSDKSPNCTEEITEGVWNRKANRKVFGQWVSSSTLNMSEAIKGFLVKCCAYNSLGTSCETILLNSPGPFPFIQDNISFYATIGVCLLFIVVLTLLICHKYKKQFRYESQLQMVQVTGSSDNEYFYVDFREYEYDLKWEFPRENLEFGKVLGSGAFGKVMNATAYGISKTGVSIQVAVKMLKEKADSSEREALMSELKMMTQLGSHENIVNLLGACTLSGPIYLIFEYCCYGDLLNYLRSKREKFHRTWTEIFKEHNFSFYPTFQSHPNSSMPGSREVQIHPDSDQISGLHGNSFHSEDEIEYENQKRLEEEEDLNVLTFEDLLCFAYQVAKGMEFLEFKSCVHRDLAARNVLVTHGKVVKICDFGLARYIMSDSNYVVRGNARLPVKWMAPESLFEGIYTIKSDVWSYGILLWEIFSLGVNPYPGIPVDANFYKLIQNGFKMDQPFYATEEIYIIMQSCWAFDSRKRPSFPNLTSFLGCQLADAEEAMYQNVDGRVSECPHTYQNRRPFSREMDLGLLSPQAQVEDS
In short: as §1

| Compound | IC50 (FLT3-ITD) | IC50 (FLT3-D835Y) |
| --- | --- | --- |
| CC(C)(C)n1cnc2ccc(-c3c[nH]c4ncc(-c5ccc(F)c(C#N)c5)cc34)cc21 [P-207, 5-[3-(3-tert-butylbenzimidazol-5-yl)-1H-pyrrolo[2,3-b]pyridin-5-yl]-2-fluoro-benzonitrile] | 0.0001 to 1 µM | 0.0001 to 1 µM |
| FC(F)(F)Cn1cc(-c2cnc3[nH]cc(-c4ccc5ncsc5c4)c3n2)cn1 [P-166, 6-[2-[1-(2,2,2-trifluoroethyl)pyrazol-4-yl]-5H-pyrrolo[2,3-b]pyrazin-7-yl]-1,3-benzothiazole] | 0.0001 to 1 µM | 0.0001 to 1 µM |
| N#Cc1cccc(S(=O)(=O)Nc2cnc3[nH]cc(-c4ccc5ncn(C6CCCNC6)c5c4)c3c2)c1 (stereo not shown) [P-234, 3-cyano-N-[3-[3-(3-piperidyl)benzimidazol-5-yl]-1H-pyrrolo[2,3-b]pyridin-5-yl]benzenesulfonamide] | 0.0001 to 1 µM | 0.0001 to 1 µM |
| COC(=O)c1cc(-c2cnc3[nH]cc(-c4ccc5ncsc5c4)c3n2)ccc1C [P-165, methyl 5-[7-(1,3-benzothiazol-6-yl)-5H-pyrrolo[2,3-b]pyrazin-2-yl]-2-methyl-benzoate] | 0.0001 to 1 µM | 0.0001 to 1 µM |
| Fc1ccc(-n2cnc3ccc(-c4c[nH]c5ncc(-c6cccc(OC(F)(F)F)c6)cc45)cc32)cc1Cl [P-211, 1-(3-chloro-4-fluoro-phenyl)-6-[5-[3-(trifluoromethoxy)phenyl]-1H-pyrrolo[2,3-b]pyridin-3-yl]benzimidazole] | 0.0001 to 1 µM | 0.0001 to 1 µM |
| COc1cc(-c2cnc3[nH]cc(-c4ccc5ncn(C6CCCNC6)c5c4)c3n2)ccn1 (stereo not shown) [P-136, 2-(2-methoxypyridin-4-yl)-7-(1-(piperidin-3-yl)-1H-benzo[d]imidazol-6-yl)-5H-pyrrolo[2,3-b]pyrazine] | 0.0001 to 1 µM | 0.0001 to 1 µM |
| CC(C)(C)n1cnc2ccc(-c3c[nH]c4ncc(-c5cccc(C#N)c5)cc34)cc21 [P-199, 3-[3-(3-tert-butylbenzimidazol-5-yl)-1H-pyrrolo[2,3-b]pyridin-5-yl]benzonitrile] | 0.0001 to 1 µM | 0.0001 to 1 µM |
| CN(C)c1ncc(-c2cnc3[nH]cc(-c4ccc5ncn(C(C)(C)C)c5c4)c3n2)cn1 [P-378, 5-[7-(3-tert-butylbenzimidazol-5-yl)-5H-pyrrolo[2,3-b]pyrazin-2-yl]-N,N-dimethyl-pyrimidin-2-amine] | 0.0001 to 1 µM | 0.0001 to 1 µM |
| Fc1ccc(-n2cnc3ccc(-c4c[nH]c5ncc(-c6cccc(OC(F)(F)F)c6)nc45)cc32)cc1 [P-192, 7-[3-(4-fluorophenyl)benzimidazol-5-yl]-2-[3-(trifluoromethoxy)phenyl]-5H-pyrrolo[2,3-b]pyrazine] | 0.0001 to 1 µM | 0.0001 to 1 µM |
| O=C(O)Cc1cccc(-c2cnc3[nH]cc(-c4ccc5ncsc5c4)c3n2)c1 [P-164, 2-[3-[7-(1,3-benzothiazol-6-yl)-5H-pyrrolo[2,3-b]pyrazin-2-yl]phenyl]acetic acid] | 0.0001 to 1 µM | 0.0001 to 1 µM |
| COc1cc(-c2cnc3[nH]cc(-c4ccc5ncn(-c6ccc(F)cc6)c5c4)c3n2)ccn1 [P-206, 7-[3-(4-fluorophenyl)benzimidazol-5-yl]-2-(2-methoxy-4-pyridyl)-5H-pyrrolo[2,3-b]pyrazine] | 0.0001 to 1 µM | 0.0001 to 1 µM |
| COc1cc(-c2cnc3[nH]cc(-c4ccc5ncn(C(C)(C)C)c5c4)c3n2)ccc1C#N [P-354, 4-[7-(3-tert-butylbenzimidazol-5-yl)-5H-pyrrolo[2,3-b]pyrazin-2-yl]-2-methoxy-benzonitrile] | 0.0001 to 1 µM | 0.0001 to 1 µM |
| CC(C)(C)n1cnc2ccc(-c3c[nH]c4ncc(-c5cccc(OC(F)(F)F)c5)cc34)cc21 [P-202, 1-tert-butyl-6-[5-[3-(trifluoromethoxy)phenyl]-1H-pyrrolo[2,3-b]pyridin-3-yl]benzimidazole] | 0.0001 to 1 µM | 0.0001 to 1 µM |
| Cn1cnc2ccc(-c3c[nH]c4ncc(-c5ccc(C#N)s5)cc34)cc21 [P-179, 5-[3-(3-methylbenzimidazol-5-yl)-1H-pyrrolo[2,3-b]pyridin-5-yl]thiophene-2-carbonitrile] | 0.0001 to 1 µM | 0.0001 to 1 µM |
